According to ChEMBL document CHEMBL1201862, “PubChem BioAssay data set” (2004):
Each block holds one molecule with its values, some of them ahead of it. Activity calls are given as the source filed them.

How the values were obtained:
[1] = Luminescence Cell-Based Dose Retest to Confirm Inhibitors of Cancer Stem Cells. [Related pubchem assays (depositor defined):AID2717, AID2721]; format: functional; conditions: Homo sapiens
[2] = biological target: T1, Heat shock factor protein 1 (Mus musculus, UniProt P38532); assay: HSF1 potentiators in luciferase reporter cells, confirmation, cell-based, NIH3T3, luminescence, dose retest (AID 435004); format: functional;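 also: stress induced by proteasome inhibitor MG132 added 30 min after compound; luciferase reporter driven by HSF1 response element in NIH3T3 cells; actives raise luminescence as potentiators of the MG132 stress response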
T1 sequence (P38532 whole entry): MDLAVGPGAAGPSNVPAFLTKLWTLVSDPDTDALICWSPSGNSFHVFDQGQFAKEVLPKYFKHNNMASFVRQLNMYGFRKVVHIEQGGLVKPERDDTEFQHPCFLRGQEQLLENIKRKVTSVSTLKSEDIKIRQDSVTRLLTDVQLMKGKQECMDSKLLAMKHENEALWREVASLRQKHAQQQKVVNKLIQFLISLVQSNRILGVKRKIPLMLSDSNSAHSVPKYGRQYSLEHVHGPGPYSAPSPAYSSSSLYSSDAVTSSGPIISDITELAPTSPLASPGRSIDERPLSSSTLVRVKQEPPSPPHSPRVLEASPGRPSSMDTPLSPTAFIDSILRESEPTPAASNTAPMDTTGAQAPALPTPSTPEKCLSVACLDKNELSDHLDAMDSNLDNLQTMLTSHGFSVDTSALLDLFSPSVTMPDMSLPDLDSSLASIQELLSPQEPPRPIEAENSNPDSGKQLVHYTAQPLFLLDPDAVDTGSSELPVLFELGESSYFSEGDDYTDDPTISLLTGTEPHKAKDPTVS

[3] = HEK293T cell cytotoxicity, dose response, cytotoxicity control for HIV Vif inhibitor project, cherry-picks (AID 652208); format: functional, cell-based
[4] = HEK293 cell viability, dose response, counter-screen for EBV LMP1 inhibitor project, dry powder, set 2 (AID 624374); format: functional
[5] = Counterscreen for inhibitors of Trypanosoma brucei methionyl tRNA synthetase (MetRS): Luminescence-based cell-based high throughput dose response assay to identify compounds that are cytotoxic to Jurkat human T lymphocyte cells.; format: functional
[6] = biological target: T2, Methionyl-tRNA synthetase, putative (Trypanosoma brucei brucei, UniProt Q38C91); format: functional, Trypanosoma brucei brucei strain 927/4 GUTat10.1
T2 sequence (Q38C91 whole entry): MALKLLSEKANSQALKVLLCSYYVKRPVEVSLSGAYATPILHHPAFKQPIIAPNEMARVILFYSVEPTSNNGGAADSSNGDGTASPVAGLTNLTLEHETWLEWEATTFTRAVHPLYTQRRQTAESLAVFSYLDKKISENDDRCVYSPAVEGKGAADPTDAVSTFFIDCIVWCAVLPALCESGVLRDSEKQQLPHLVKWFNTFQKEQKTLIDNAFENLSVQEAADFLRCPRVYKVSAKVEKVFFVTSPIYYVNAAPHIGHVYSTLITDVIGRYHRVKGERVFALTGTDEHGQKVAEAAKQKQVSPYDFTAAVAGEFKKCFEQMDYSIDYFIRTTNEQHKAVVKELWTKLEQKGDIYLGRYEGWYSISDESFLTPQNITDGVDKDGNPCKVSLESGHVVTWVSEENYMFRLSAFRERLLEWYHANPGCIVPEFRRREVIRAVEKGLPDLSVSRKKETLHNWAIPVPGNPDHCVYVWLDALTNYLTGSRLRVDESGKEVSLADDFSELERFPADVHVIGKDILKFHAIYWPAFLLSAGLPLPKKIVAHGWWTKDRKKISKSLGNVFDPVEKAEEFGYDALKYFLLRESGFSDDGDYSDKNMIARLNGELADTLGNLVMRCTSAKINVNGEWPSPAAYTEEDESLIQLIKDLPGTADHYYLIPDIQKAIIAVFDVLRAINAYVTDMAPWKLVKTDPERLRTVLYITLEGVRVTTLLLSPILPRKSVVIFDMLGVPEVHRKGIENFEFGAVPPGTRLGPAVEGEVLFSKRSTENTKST

[7] = biological target: T2, Methionyl-tRNA synthetase, putative; format: functional, Trypanosoma brucei brucei strain 927/4 GUTat10.1; remark: listed apart in the source
[8] = biological target: SWI/SNF-related matrix-associated actin-dependent regulator of chromatin subfamily A member 2 (Homo sapiens, UniProt P51531); assay: Luminescence-based cell-based high throughput dose response assay to identify activators of the function of SWI/SNF related, matrix associated, actin dependent regulator of chromatin, subfamily a, member 2 (SMARCA2, BRM).; format: functional
SWI/SNF-related matrix-associated actin-dependent regulator of chromatin subfamily A member 2, sequence (P51531 whole entry): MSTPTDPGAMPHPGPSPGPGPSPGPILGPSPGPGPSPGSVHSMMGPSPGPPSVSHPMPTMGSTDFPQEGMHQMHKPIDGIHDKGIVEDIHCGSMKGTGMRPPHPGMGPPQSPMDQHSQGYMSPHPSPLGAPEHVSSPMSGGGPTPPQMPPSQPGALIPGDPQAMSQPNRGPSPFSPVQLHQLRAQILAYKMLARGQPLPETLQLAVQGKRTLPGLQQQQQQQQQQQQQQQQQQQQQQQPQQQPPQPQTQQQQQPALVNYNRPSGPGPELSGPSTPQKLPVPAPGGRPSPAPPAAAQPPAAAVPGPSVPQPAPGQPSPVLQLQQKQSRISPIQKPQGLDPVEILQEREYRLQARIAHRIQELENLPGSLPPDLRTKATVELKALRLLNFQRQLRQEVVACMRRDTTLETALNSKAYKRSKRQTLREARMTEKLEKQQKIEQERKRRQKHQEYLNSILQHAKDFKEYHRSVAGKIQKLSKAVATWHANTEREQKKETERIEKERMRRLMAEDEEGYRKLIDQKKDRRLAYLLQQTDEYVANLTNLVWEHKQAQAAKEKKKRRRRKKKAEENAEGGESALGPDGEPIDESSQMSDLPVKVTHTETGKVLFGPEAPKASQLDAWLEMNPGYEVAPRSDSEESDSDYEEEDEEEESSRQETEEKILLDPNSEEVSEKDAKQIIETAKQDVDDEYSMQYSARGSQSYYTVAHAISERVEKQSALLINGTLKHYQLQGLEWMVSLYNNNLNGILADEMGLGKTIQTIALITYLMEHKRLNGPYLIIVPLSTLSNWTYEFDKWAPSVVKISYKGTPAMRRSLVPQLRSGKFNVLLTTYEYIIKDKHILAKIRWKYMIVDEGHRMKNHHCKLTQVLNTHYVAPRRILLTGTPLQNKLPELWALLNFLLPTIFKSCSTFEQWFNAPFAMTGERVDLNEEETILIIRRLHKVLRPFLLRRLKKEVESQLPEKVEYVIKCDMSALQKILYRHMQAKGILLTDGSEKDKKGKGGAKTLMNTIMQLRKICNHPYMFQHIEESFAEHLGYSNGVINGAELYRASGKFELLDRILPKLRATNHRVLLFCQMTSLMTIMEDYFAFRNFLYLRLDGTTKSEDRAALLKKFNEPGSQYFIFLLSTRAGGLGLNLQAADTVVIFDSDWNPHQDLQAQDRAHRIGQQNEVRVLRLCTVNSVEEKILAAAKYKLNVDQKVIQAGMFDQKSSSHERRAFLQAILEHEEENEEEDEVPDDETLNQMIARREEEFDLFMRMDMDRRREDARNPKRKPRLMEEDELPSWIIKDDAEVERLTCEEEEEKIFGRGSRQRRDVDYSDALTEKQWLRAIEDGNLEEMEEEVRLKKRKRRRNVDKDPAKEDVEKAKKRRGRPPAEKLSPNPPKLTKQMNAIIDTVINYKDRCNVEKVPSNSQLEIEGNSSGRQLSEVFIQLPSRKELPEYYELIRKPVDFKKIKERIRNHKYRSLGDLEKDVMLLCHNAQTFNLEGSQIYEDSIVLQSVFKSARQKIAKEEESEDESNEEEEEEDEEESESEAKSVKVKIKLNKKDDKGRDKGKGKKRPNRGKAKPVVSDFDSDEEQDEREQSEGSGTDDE

[9] = Counterscreen for activators of the function of SWI/SNF related, matrix associated, actin dependent regulator of chromatin, subfamily a, member 2 (SMARCA2, BRM): Luminescence-based cell-based high throughput dose response assay to identify non-selective compounds using the VP16 reporter assay.; format: functional
[10] = biological target: 5-hydroxytryptamine receptor 2A (Mus musculus, UniProt P35363); format: functional, cell-based;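 also: CHO-K1 cells with tagged receptor and beta-arrestin; agonist potency measured as compound-induced activation of the receptor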
5-hydroxytryptamine receptor 2A, sequence (P35363 whole entry): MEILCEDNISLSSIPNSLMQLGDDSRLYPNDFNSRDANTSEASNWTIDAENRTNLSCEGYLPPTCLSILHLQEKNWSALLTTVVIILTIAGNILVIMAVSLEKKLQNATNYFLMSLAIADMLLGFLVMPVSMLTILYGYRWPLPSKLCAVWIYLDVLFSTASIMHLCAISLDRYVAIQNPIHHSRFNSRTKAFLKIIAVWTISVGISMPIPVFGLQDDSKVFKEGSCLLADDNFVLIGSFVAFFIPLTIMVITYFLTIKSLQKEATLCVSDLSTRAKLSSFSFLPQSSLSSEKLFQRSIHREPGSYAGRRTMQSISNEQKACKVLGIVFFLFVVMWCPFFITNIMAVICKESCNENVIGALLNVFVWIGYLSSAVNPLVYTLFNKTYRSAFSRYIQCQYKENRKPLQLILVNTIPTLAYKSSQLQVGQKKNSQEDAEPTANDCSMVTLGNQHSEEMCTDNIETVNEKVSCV

Mu-type opioid receptor = Mu-type opioid receptor (Homo sapiens, UniProt P35372); format: functional, cell-based;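 also: U2OS cells with beta-arrestin recruitment to OPRM1 by beta-gal complementation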
Mu-type opioid receptor, sequence (P35372 whole entry): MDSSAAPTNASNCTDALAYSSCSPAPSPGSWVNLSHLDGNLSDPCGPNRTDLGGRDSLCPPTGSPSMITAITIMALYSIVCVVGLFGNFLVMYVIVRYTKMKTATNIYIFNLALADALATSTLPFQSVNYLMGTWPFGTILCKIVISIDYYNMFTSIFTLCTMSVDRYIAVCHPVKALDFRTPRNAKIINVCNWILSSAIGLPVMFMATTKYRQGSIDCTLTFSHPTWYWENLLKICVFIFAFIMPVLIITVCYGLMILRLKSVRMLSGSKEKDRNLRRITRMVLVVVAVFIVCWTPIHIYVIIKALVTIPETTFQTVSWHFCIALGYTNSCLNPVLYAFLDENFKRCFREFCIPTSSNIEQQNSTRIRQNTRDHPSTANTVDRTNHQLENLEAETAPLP

Caspase-6 = biological target: T3, Caspase-6 (Homo sapiens, UniProt P55212); assay: human caspase-6 inhibitors, dose response, biochemical, VEID-R110 fluorescence, cherry-pick (AID 720632)
T3 sequence (P55212 whole entry): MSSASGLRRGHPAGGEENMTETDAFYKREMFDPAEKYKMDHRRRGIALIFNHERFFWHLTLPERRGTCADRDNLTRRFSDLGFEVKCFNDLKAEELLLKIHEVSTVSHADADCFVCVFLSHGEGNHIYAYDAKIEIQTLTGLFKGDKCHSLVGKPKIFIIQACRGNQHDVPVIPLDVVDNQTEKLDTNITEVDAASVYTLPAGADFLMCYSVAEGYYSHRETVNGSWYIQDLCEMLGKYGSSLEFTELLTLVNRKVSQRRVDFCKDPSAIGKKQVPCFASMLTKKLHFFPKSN

[11] = biological target: T4, Sentrin-specific protease 8 (Homo sapiens, UniProt Q96LD8); format: functional
T4 sequence (Q96LD8 whole entry): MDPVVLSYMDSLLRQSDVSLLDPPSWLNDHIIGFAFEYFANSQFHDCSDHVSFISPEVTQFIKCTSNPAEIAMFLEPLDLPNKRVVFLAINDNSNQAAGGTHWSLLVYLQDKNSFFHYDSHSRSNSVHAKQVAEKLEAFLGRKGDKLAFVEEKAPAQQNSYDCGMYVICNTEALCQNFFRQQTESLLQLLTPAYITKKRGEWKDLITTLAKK

[12] = biological target: T5, Sentrin-specific protease 6 (Homo sapiens, UniProt Q9GZR1); format: functional;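 also: Luminescence-based dose-response confirmatory assay of SENP6 inhibition, following up an ultra-high-throughput screen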
T5 sequence (Q9GZR1 whole entry): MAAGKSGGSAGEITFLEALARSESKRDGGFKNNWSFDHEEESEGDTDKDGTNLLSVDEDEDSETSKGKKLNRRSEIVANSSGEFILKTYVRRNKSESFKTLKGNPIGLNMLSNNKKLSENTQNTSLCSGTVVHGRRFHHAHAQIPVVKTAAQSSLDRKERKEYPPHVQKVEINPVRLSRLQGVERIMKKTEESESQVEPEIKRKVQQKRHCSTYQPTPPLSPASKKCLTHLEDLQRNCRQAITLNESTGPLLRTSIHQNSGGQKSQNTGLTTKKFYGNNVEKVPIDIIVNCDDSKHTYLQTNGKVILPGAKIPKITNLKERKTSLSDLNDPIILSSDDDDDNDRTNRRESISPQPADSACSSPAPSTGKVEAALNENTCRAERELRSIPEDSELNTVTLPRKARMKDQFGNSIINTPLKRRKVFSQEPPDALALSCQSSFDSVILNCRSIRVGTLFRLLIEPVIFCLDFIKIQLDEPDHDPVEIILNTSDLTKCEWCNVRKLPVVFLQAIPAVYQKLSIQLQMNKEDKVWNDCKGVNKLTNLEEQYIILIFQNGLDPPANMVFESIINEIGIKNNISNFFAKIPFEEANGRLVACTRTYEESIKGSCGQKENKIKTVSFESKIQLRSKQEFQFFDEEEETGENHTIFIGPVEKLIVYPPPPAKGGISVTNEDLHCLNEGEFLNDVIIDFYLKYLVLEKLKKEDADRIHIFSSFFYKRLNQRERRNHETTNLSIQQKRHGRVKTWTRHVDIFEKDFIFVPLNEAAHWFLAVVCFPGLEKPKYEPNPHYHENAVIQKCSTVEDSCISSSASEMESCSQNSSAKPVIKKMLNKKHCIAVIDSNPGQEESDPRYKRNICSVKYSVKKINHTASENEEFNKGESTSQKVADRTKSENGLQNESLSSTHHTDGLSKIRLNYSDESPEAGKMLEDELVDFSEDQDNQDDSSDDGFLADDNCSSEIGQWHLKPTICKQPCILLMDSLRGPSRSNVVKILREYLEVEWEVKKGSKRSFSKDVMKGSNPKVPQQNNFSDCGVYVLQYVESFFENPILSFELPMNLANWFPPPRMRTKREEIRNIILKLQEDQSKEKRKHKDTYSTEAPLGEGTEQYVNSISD

[13] = biological target: T6, Sentrin-specific protease 7 (Homo sapiens, UniProt Q9BQF6); format: functional;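 also: Luminescence-based dose-response confirmation of ultra-high-throughput screening hits, measuring inhibition of SENP7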
T6 sequence (Q9BQF6 whole entry): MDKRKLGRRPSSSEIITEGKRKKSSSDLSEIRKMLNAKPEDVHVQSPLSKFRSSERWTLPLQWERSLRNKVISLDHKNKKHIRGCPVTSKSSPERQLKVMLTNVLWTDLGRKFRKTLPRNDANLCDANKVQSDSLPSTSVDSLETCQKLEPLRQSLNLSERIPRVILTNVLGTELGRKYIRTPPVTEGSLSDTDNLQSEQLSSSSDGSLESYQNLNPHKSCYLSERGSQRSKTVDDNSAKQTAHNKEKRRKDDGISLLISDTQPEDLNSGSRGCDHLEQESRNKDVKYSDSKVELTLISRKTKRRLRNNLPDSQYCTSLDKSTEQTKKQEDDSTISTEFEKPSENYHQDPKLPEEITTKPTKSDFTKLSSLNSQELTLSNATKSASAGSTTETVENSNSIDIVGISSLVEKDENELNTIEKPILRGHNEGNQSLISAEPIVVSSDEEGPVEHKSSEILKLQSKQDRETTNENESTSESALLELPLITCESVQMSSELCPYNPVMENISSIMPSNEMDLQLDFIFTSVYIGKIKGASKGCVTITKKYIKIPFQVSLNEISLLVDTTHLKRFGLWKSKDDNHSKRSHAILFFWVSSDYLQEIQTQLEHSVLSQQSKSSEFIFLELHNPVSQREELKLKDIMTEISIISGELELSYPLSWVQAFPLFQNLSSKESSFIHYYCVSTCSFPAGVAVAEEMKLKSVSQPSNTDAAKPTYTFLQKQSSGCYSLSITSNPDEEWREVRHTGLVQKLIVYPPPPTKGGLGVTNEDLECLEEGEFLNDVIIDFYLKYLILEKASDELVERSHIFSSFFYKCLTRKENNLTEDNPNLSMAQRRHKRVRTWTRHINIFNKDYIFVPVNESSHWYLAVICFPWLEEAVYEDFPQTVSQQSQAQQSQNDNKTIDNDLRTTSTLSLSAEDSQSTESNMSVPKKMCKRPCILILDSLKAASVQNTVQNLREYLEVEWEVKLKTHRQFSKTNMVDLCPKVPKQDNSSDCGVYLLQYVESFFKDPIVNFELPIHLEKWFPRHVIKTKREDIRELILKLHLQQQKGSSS

[14] = biological target: T4, Sentrin-specific protease 8; format: functional; remark: listed apart in the source
[15] = biological target: T4, Sentrin-specific protease 8; format: functional; remark: listed apart in the source
Caspase-3 = biological target: T7, Caspase-3 (Homo sapiens, UniProt P42574); format: functional;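 also: Dose-response selectivity test against caspase-3 for candidate inhibitors of sentrin-specific proteases (SENPs)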
T7 sequence (P42574 whole entry): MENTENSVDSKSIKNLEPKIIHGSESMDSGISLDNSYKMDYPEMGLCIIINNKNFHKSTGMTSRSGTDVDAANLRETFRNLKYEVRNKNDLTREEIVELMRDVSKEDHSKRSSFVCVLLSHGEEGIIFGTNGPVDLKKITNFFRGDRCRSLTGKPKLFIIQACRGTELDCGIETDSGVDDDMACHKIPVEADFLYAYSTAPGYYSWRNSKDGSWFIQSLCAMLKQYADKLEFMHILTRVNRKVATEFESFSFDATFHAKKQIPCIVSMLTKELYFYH

SMILES: O=C(COC(=O)/C=C/C(=O)OCC(=O)Nc1ccccc1F)Nc1ccccc1F
- AC50 [1]: 7.02 µM (active)
- EC50 [2]: 11.1 µM (active)
- AC50 [3]: 44.3 µM (active)

SMILES: N#C[C@H]1[C@@H](c2ccc(-c3cccnc3)cc2)[C@@H](CO)N1C(=O)Nc1ccc(F)cc1
- AbsAC35 [4]: 162.11 µM

SMILES: Oc1nc(CSc2ncc(C(F)(F)F)cc2Cl)nc2ccccc12
- IC50 [5]: 35.7 µM (inactive)
- IC50 [6]: 14.4 µM (inactive)
- IC50 [7]: 5.35 µM (active)

SMILES: CC(C)(C)CC(=O)O/N=C(\N)c1ccccn1
- EC50 [8]: > 91.1 µM (inactive)
- EC50 [9]: > 91.1 µM (inactive)

- EC50 [10]: 0.965 µM (active)
- EC50 (Mu-type opioid receptor): 92.5 µM (inactive)
SMILES: CCOc1ccc(CN2CCN(C(=O)c3ccco3)CC2)cc1

SMILES: N#CCn1cnc2sc(-c3ccccc3)cc2c1=O
- EC50 [8]: > 91.2 µM (inactive)
- EC50 [9]: > 91.2 µM (inactive)

- AC50 (Caspase-6): 11.1 µM (active)
- IC50 [12]: < 1.55 µM (active)
- IC50 [13]: 1.79 µM (active)
- IC50 (Caspase-3): 2.67 µM (active)
SMILES: O=C1OC(Nc2cc(Br)cc3cccnc23)c2ccccc21 (stereo not given)
- IC50 [11]: 1.63 µM (active)
- IC50 [14]: > 100 µM (inactive)
- IC50 [15]: 8.4 µM (active)

- EC50 [10]: 0.0105 µM (active)
- EC50 (Mu-type opioid receptor): 92.5 µM (inactive)
SMILES: CC12CCC(C(=O)N(CCCCN3CCN(c4ccccn4)CC3)C1=O)C2(C)C (stereo not given)

SMILES: Brc1ccc2[nH]c3c(NCc4ccccn4)ncnc3c2c1
- IC50 [5]: 83.3 µM (inactive)
- IC50 [6]: 5.71 µM (active)
- IC50 [7]: 3.47 µM (active)
